The source of these data is paper PMC10186355, “Discovery of 5′-Substituted 5-Fluoro-2′-deoxyuridine Monophosphate Analogs: A Novel Class of Thymidylate Synthase Inhibitors” (ACS Pharmacology & Translational Science, 2023).

Where only a bound is given, the exact number is not on record here.

For one series, the target named is T1, recombinant human thymidylate synthase (hTS) (Homo sapiens, UniProt P04818).
T1 construct: His tag (N); purchased Abcam ab95378
T1 sequence (P04818 whole entry): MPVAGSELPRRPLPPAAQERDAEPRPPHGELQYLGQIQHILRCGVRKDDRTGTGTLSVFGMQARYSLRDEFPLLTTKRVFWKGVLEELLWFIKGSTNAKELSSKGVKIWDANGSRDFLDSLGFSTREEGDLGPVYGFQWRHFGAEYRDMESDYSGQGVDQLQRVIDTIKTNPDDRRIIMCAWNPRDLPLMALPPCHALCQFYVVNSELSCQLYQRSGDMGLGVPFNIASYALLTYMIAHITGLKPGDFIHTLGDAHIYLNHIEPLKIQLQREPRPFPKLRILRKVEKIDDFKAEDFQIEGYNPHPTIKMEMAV
Kind of series: cell-free human thymidylate synthase (hTS) inhibition assay. It is filed as biochemical. The settings on record: 0.84 μM hTS, 50 μM dUMP, 250 μM mTHF, DHF formation at 340 nm, room temperature, pH 7.5.
Method: This assay measures TS-catalyzed conversion of dUMP and mTHF to dTMP and dihydrofolate (DHF), the latter of which uniquely absorbs strongly at 340 nm (Figures S1 and S2). […] Concentration–response curves were constructed by plotting the normalized reaction rates (calculated using data from the first 100 s after reaction initiation) versus log[inhibitor].
The final concentrations of hTS, dUMP, and mTHF in the reaction systems were 0.84 μM, 50 μM, and 250 μM, respectively. The reaction rates were determined by following the change in the optical absorbance at 340 nm, which corresponded to the formation of the coproduct, DHF.
Human Thymidylate Synthase Inhibition Assay
Recombinant human thymidylate synthase (hTS) was purchased from Abcam (ab95378). The protein was
His-tagged (N-terminal) and >95% pure by SDS-PAGE according to the vendor. dUMP (disodium salt)
(F3503), 5,10-methylenetetrahydrofolate (mTHF, calcium salt , folitixorin calcium ) was purchased from
Boc Sciences (B0084-007873), and all were used without further purification. The cell-free functional hTS
assay protocol was modified from literature procedures :
Inhibition assays were performed using a BioTek Synergy Neo2 plate reader equipped with a Xenon flash
lamp and a photodiode array detector. The hTS reaction was conducted at room temperature in a buffer
solution (pH 7.5) containing 50 mM Tris -HCl, 1 mM EDTA, 25 mM MgCl 2, and 5 mM HCHO. The
reaction system (175 μL total volume, 1 cm optical path lengt h) contained 50 μM dUMP (primary
substrate), 250 μM mTHF (co-substrate and enzyme cofactor), 0.84 μM hTS (enzyme), and decreasing
Formation of the co -product, dihydrofolate, was monitored at 340 nm. Reaction rates were
calculated by plotting t he absorbance at 340 nm against the reaction time and performing linear regression
analysis to determ ine the slope. The reaction rates at different inhibitor concentrations were normalized to
the reaction rate determined in the absence of inhibitor (100% enzymatic activity). Concentration-response
curves were constructed by plotting t he resulting mean % enzymatic activity values (from at least three
independent experiments) against log[inhibitor]. IC50 values were then calculated using non -linear
regression (four -parameter logistic equation, see Equation 1 below) in the GraphPad Prism v.9 software.
Equation 1: Y = Ymin + (Ymax – Ymin) / [1 + 10((logIC50 – X) × Hill Slope)]
For `C[C@@H](OP(=O)(O)O)[C@H]1O[C@@H](n2cc(F)c(=O)[nH]c2=O)C[C@@H]1O` [Compound 1, 5′(R)-CH3 FdUMP], the IC50 – broadly, the concentration that gives 50% inhibition – amounted to 1210 nM.
The same measure, in the same setting: under `O=c1[nH]c(=O)n([C@H]2C[C@H](O)[C@@H]([C@@H](OP(=O)(O)O)C(F)(F)F)O2)cc1F` [Compound 5, 5′(R)-CF3 FdUMP] stands above 20000 nM.
Turning to `C[C@H](OP(=O)(O)O)[C@H]1O[C@@H](n2cc(F)c(=O)[nH]c2=O)C[C@@H]1O` [Compound 2, 5′(S)-CH3 FdUMP], the IC50 is above 20000 nM.
Still for that read-out and setting: with `CC(C)(OP(=O)(O)O)[C@H]1O[C@@H](n2cc(F)c(=O)[nH]c2=O)C[C@@H]1O` [Compound 3, 5′-gem-(CH3)2 FdUMP] the figure was above 20000 nM; with `O=c1[nH]c(=O)n([C@H]2C[C@H](O)[C@@H]([C@H](OP(=O)(O)O)C(F)(F)F)O2)cc1F` [Compound 4, 5′(S)-CF3 FdUMP], 1240 nM.

The subject of the next series is dihydropyrimidine dehydrogenase (DPD).
Test: not given
Particulars: cited from earlier work. Set-up: method as in PMID 9830621, PMID 31756363.
For the compound `O=c1[nH]cc(F)c(=O)[nH]1` [5-FU, 5-Fluorouracil], the “catabolic degradation in the liver by DPD” value is given as “up to 85%”.
